{
  "source": "patent US20160166487A1",
  "about": "“TOPICAL COMPOSITIONS FOR TREATMENT OF EXCESSIVE SWEATING AND METHODS OF USE THEREOF” (GLAXOSMITHKLINE INTELLECTUAL PROPERTY DEVELOPMENT LIMITED, priority 2013, published 2016)",
  "key": {"[1]": {"experiment": "MALDI imaging of distribution in skin layers", "format": "in vitro ADME, human", "conditions": "twenty-four hours after single finite topical dose", "text": "Matrix-assisted laser desorption/ionization (MALDI) has emerged as a powerful and diverse technology for analyzing the spatial distribution of endogenous and exogenous compounds directly from a tissue section. [See Seeley E H, Caprioli R M. MALDI imaging mass spectrometry of human tissue: method challenges and clinical perspectives. Trends Biotechnol. 29(3), 136-143 (2011); and Svatos A. Mass spectrometric imaging of small molecules. Trends Biotechnol. 28(8), 425-434 (2010)]. […] Anal Bioanal Chem. (2013); 405(4):1159-70]. MALDI imaging in human skin tissue sections: focus on various matrices and enzymes."}, "[2]": {"experiment": "Clinical study, single topical [14C] umeclidinium dose to axilla or palm of healthy male subjects", "format": "in vivo, human", "method": "Up to four cohorts were to be enrolled (Cohort A: unoccluded axilla; Cohort B: occluded axilla; Cohort C: unoccluded palm; Cohort D: occluded palm). Six subjects were to be dosed in each cohort and complete the study procedures.\nOn the day of dosing, subjects will receive the study drug applied to the axilla or palm. Each subject will only receive a single dose of study drug which will be applied to the test site and remain on the application site for 8 hours. Serial blood samples will be collected throughout treatment. An interim analysis using simulations will be conducted after each cohort to determine the likelihood of exceeding the safety cover for Cmax or AUC and the likelihood of obtaining quantifiable concentrations sufficient to determine the half-life in the subsequent cohorts."}, "[3]": {"experiment": "Population pharmacokinetic model of IV and occluded axilla plasma data", "format": "in vivo, human", "text": "Of the drug that was available systemically, 9.70% (66.7%) was absorbed through a zero order process."}, "[4]": {"experiment": "Irritation potential of topical solution", "conditions": "solution comprising 2.2% w/w umeclidinium bromide"}, "[5]": {"conditions": "0.5 mg (500 mcg) inhaled once daily for 10 days, thorough QT study; cited from earlier work"}},
  "data": [
    {"smiles": "OC(c1ccccc1)(c1ccccc1)C12CC[N+](CCOCc3ccccc3)(CC1)CC2", "note": "[umeclidinium, 4-[hydroxy(diphenyl)methyl]-1-{2-[(phenylmethyl)oxy]ethyl}-1-azoniabicyclo[2.2.2]octane]", "values": [
      {"measurement": "qualitative distribution in the skin layers", "setting": "[1]", "value": "penetrated to the deeper sections of the dermis and accumulated in the area where the sweat glands are present"},
      {"measurement": "percent dose recovered from the skin surface, mean", "setting": "[2]; Cohort A, unoccluded axilla, end of 8 hour application, range 77.7-84.1%", "value": 80.6, "unit": "%"},
      {"measurement": "median time to maximum plasma concentration", "setting": "[2]; Cohort A, unoccluded axilla, range: 12 h-30 h", "value": 13, "unit": "h"},
      {"measurement": "percent dose recovered from the skin surface, mean", "setting": "[2]; Cohort B, occluded axilla, range 69.2%-81.7%", "value": 75.4, "unit": "%"},
      {"measurement": "median time to maximum concentration", "setting": "[2]; Cohort B, occluded axilla, range: 2 h-24 h", "value": 13, "unit": "h"},
      {"measurement": "plasma concentrations", "setting": "[2]; Cohort D, occluded palm", "value": "no quantifiable plasma concentrations"},
      {"measurement": "percent dose recovered from the skin surface, mean", "setting": "[2]; Cohort D, occluded palm, range 45.6%-59.9%", "value": 52.5, "unit": "%"},
      {"measurement": "estimated absolute plasma bioavailability, mean (RSE %)", "setting": "[3]; administration to occluded axilla, RSE 55.3%", "value": 0.19, "unit": "%"},
      {"measurement": "share of systemically available drug absorbed through a zero order process, mean (RSE %)", "setting": "[3]; occluded axilla, RSE 66.7%", "value": 9.70, "unit": "%"},
      {"measurement": "irritation potential", "setting": "[4]", "value": "low irritation potential"},
      {"measurement": "tolerability", "setting": "[5]", "value": "well tolerated"}
    ]}
  ]
}
